In BindingDB's records for doi:10.1021/acs.jmedchem.3c01236 (University of Toronto Mississauga, 2023):

Target: Histone deacetylase 1 (Homo sapiens, UniProt Q13547)
Assay: Inhibition of HDAC1 (unknown origin) using 6-carboxyfluorescein peptide as substrate preincubated with compound followed by substrate addition by electrophoretic mobility shift assay

Histone deacetylase 1, sequence (Q13547 whole entry): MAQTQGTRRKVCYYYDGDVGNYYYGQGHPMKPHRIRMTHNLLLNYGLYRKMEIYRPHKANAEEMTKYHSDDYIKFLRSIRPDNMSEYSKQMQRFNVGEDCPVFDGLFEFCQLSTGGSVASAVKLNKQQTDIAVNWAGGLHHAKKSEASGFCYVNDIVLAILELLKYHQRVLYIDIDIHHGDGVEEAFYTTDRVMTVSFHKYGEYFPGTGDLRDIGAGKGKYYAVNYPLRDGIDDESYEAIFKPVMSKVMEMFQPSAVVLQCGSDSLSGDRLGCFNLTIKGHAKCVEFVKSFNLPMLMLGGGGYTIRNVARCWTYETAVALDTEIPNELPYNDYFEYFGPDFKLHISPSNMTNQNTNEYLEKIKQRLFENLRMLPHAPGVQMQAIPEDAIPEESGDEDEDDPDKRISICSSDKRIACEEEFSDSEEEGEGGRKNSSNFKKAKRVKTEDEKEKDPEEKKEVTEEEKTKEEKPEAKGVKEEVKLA

IC50: 685 nM
SMILES: C=CC(=O)N1CCC(OC(=O)NCc2ccc(C(=O)Nc3ccccc3N)cc2)CC1
